Assay [1] concerns Rattus norvegicus. The assay can be described thus: Inhibition of the IgE-mediated passive cutaneous anaphylaxis (PCA) reaction in rat after intravenous administration; Range 2.20-3.00. It is filed as functional.
The test system of assay [2] is Rattus norvegicus. The assay can be described thus: Inhibition of the IgE-mediated passive cutaneous anaphylaxis (PCA) reaction in rat after oral administration; Range 0.29-6.49. Format: functional.
Assay [3] has as its system Rattus norvegicus. Kind of assay: Inhibition of the IgE-mediated passive cutaneous anaphylaxis (PCA) reaction in rat after intravenous administration; Range 0.06-0.22. Format: functional.
The subject of assay [4] is Rattus norvegicus. Kind of assay: Inhibition of the IgE-mediated passive cutaneous anaphylaxis (PCA) reaction in rat after oral administration; Range 0.65-6.05. Format: functional.
Assay [5] concerns Rattus norvegicus. Kind of assay: Inhibition of the IgE-mediated passive cutaneous anaphylaxis (PCA) reaction in rat after oral administration; NA means inactive at 1 and 10 mg/Kg. It is filed as functional, organism-based.
The test system of assay [6] is Rattus norvegicus. Kind of assay: Inhibition of the IgE-mediated passive cutaneous anaphylaxis (PCA) reaction in rat after intravenous administration; Range 0.12-1.07. Format: functional.
Assay [7] has as its system Rattus norvegicus. Kind of assay: Inhibition of the IgE-mediated passive cutaneous anaphylaxis (PCA) reaction in rat after intravenous administration; Range 1.31-4.63. It is filed as functional.
For assay [8], the system named is Rattus norvegicus. Kind of assay: Inhibition of the IgE-mediated passive cutaneous anaphylaxis (PCA) reaction in rat after intravenous administration; Range 0.013-0.023. It is filed as functional.
For assay [9], the system named is Rattus norvegicus. Kind of assay: Inhibition of the IgE-mediated passive cutaneous anaphylaxis (PCA) reaction in rat after oral administration; Range 0.06-0.199. Format: functional.
Assay [10] concerns Rattus norvegicus. The assay can be described thus: Inhibition of the IgE-mediated passive cutaneous anaphylaxis (PCA) reaction in rat after intravenous administration; Range 0.0103-0.0214. It is filed as functional.
Assay [11] has as its system Rattus norvegicus. Kind of assay: Inhibition of the IgE-mediated passive cutaneous anaphylaxis (PCA) reaction in rat after intravenous administration; Range 0.1-0.44. It is filed as functional.
Assay [12] relates to Rattus norvegicus. The assay can be described thus: Inhibition of the IgE-mediated passive cutaneous anaphylaxis (PCA) reaction in rat after intravenous administration; Range 2.22-5.31. It is filed as functional.
Assay [13] has as its system Rattus norvegicus. The assay can be described thus: Inhibition of the IgE-mediated passive cutaneous anaphylaxis (PCA) reaction in rat after oral administration of 10 mg/Kg of compound. It is filed as functional.
The test system of assay [14] is Rattus norvegicus. Kind of assay: Inhibition of the IgE-mediated passive cutaneous anaphylaxis (PCA) reaction in rat after oral administration; Range 0.21-7.6. It is filed as functional.
The test system of assay [15] is Rattus norvegicus. The assay can be described thus: Inhibition of the IgE-mediated passive cutaneous anaphylaxis (PCA) reaction in rat after oral administration; Range 0.37-0.65. Format: functional.
For assay [16], the system named is Rattus norvegicus. The assay can be described thus: Inhibition of the IgE-mediated passive cutaneous anaphylaxis (PCA) reaction in rat after oral administration at concentration of 10 mg/Kg of compound. Format: functional.
Assay [17] deals with Rattus norvegicus. Kind of assay: Inhibition of the IgE-mediated passive cutaneous anaphylaxis (PCA) reaction in rat after oral administration; Range 2.51-4.1. Format: functional.
Assay [18] concerns Rattus norvegicus. The assay can be described thus: Inhibition of the IgE-mediated passive cutaneous anaphylaxis (PCA) reaction in rat after oral administration; Range 0.182-1.56. Format: functional.
Assay [19] relates to Rattus norvegicus. Kind of assay: Inhibition of the IgE-mediated passive cutaneous anaphylaxis (PCA) reaction in rat after intravenous administration; Range 0.058-0.12. It is filed as functional.
Assay [20] relates to Rattus norvegicus. The assay can be described thus: Inhibition of the IgE-mediated passive cutaneous anaphylaxis (PCA) reaction in rat after oral administration; Inactive(45% inhibition at 20 mg/kg). Format: functional.
Assay [21] has as its system Rattus norvegicus. Kind of assay: Inhibition of the IgE-mediated passive cutaneous anaphylaxis (PCA) reaction in rat after intravenous administration; Range 0.066-0.453. Format: functional.
Assay [22] has as its system Rattus norvegicus. Kind of assay: Inhibition of the IgE-mediated passive cutaneous anaphylaxis (PCA) reaction in rat after oral administration; Range 0.021-0.089. It is filed as functional.
Assay [23] concerns Rattus norvegicus. Kind of assay: Inhibition of the IgE-mediated passive cutaneous anaphylaxis (PCA) reaction in rat after intravenous administration; Range 0.043-0.12. Format: functional.
Assay [24] deals with Rattus norvegicus. Kind of assay: Inhibition of the IgE-mediated passive cutaneous anaphylaxis (PCA) reaction in rat after intravenous administration; Range 0.052-0.43. Format: functional.
The test system of assay [25] is Rattus norvegicus. The assay can be described thus: Inhibition of the IgE-mediated passive cutaneous anaphylaxis (PCA) reaction in rat after oral administration; Range 0.031-0.15. It is filed as functional.
The test system of assay [26] is Rattus norvegicus. Kind of assay: Inhibition of the IgE-mediated passive cutaneous anaphylaxis (PCA) reaction in rat after intravenous administration; Range 2.22-3.63. It is filed as functional.
In assay [27] the test system is Rattus norvegicus. The assay can be described thus: Inhibition of the IgE-mediated passive cutaneous anaphylaxis (PCA) reaction in rat after oral administration; Range 2.47-3.45. Format: functional.

SMILES strings stand for the structures. Calls of active or inactive are those of the source. The rule behind the calls is not given here.

`CS1(=O)=Nc2nc(C(=O)O)cn2-c2ccccc21` (configuration not stated) came in with an ED50 in assay [1] of 2.59 mg/kg.

With `OCc1cn2c(n1)COc1ccccc1-2`, the median effective dose (ED50) in [2] worked out at 2.73 mg/kg.

Compound `CCn1c(=O)c2cc(C(=O)O)nn2c2ccccc21` showed an ED50 in assay [3] of 0.11 mg/kg.

In assay [4], `CC1(C)OCC(COC(=O)c2cn3c(ccc4ccccc43)n2)O1` (configuration not stated) yielded a 50% effective dose (ED50) of 1.7 mg/kg.

On to `O=C(Nc1nn[nH]n1)c1cn2c(n1)COc1ccccc1-2`, for which, in assay [5], the ED50 result was “inactive”. The same compound gave an ED50 in [6] of 0.33 mg/kg.

For the compound `O=C(O)c1cn2c(n1)COc1ccc([N+](=O)[O-])cc1-2`, the ED50 in [7] was found to be 2.22 mg/kg.

For the compound `CCCCn1c(=O)c2cc(C(=O)O)cn2c2ccc(Cl)cc21`, the ED50 in [8] was determined as 0.019 mg/kg; in [9] it was 0.114 mg/kg.

`O=C(O)C(=O)Nc1ccc2c(c1)-n1cc(C(=O)O)nc1CO2` had an ED50 in assay [10] of 0.0172 mg/kg.

`Cn1c(=O)c2cc(C(=O)O)nn2c2ccccc21` displayed an ED50 in assay [11] of 0.19 mg/kg.

Take `COc1ccc2ccc3nc(CN)cn3c2c1.Cl.Cl`: in [12], the 50% effect level (ED50) was put at a dose of 3.39 mg/kg.

Consider `O=C(OCC(O)CO)c1cn2c(ccc3ccccc32)n1` (configuration not stated), for which the Inhibition in assay [13] was determined as 47%.

In the case of `O=Cc1cn2c(cc(Cl)c3ccc(Cl)cc32)n1`, the ED50 in assay [14] was determined as 0.5 mg/kg.

As to `CCOC(=O)C(=O)Nc1ccc2c(c1)-n1cc(C(=O)OC)nc1CO2`, the ED50 in assay [15] was 0.5 mg/kg.

Take `O/N=C\c1cn2c(n1)COc1ccccc1-2`: the Inhibition in assay [16] is reported as 42%.

Regarding `O=C(OCCCl)c1cn2c(ccc3ccccc32)n1`, in [17], the ED50 was 3.5 mg/kg.

For the compound `CCn1c(=O)c2cc(-c3nn[nH]n3)cn2c2ccccc21`, the 50% effect level in assay [18] (ED50) was put at a dose of 0.44 mg/kg.

With `O=C(O)c1nnn2c1c(O)nc1ccccc12`, in [19], the ED50 was determined as 0.084 mg/kg. The compound further had an inhibition in vivo at 20 mg/kg in assay [20] of 45%.

Turning to `OCc1cn2c(cnc3ccccc32)n1`, the ED50 was determined as 0.156 mg/kg in [21] and 0.061 mg/kg in assay [22].

As to `C[S+]([O-])c1ccc2ccc3nc(C(=O)O)cn3c2c1` (configuration not stated), the ED50 in assay [23] turned out to be 0.076 mg/kg.

For `O=Cc1cn2c(cnc3ccccc32)n1`, the ED50 in [24] was found to be 0.137 mg/kg; in assay [25], 0.073 mg/kg.

As for `O=C(O)c1cn2c(n1)COc1ccccc1-2`, the ED50 was 2.89 mg/kg in assay [26] and 3.2 mg/kg in assay [27].

The record behind these values is ChEMBL document CHEMBL1124295, “Synthesis and oral antiallergic activity of carboxylic acids derived from imidazo[2,1-c][1,4]benzoxazines, imidazo[1,2-a]quinolines, imidazo[1,2-a]quinoxalines, imidazo[1,2-a]quinoxalinones, pyrrolo[1,2-a]quinoxalinones, pyrrolo[2,3-a]quinoxalinones, and imidazo[2,1-b]benzothiazoles” (1988).
